Assay results from US9186361B2, “Compounds and compositions for the treatment of parasitic diseases” (Novartis AG, priority 2013, dated 2015).

Assays:
[1] = cited from earlier work
[2] = test system: Trypanosoma cruzi amastigotes cultured in 3T3 fibroblast cells; experiment: Assay for proliferation of kinetoplastid parasite Trypanosoma cruzi (beta-galactosidase/CPRG readout); assay type: cell-based; settings: NIH3T3, 144 h, Tulahuen strain in 3T3 cells, 6 day incubation, read-out: T cruzi EC50
[3] = test system: Leishmania donovani axenic amastigote parasites; experiment: Assay for Leishmania proliferation in vitro (axenic amastigotes, Cell TiterGlo); assay type: cell-based; settings: 48 h, 2 day incubation, read-out: L. donovani amastigotes EC50
How it was run: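 L. donovani axenic amastigotes (9600 per well) are cultured with compound for 2 days at 37° C, 5% CO2 in RPMI-based medium at pH 5.5. Viability is read by CellTiterGlo luminescence, and EC50 is calculated.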

[4] = test system: Trypanosoma brucei Lister 427 strain; experiment: Assay for proliferation of kinetoplastid parasite Trypanosoma brucei (Cell Titer Glo); assay type: cell-based; settings: bloodstream form, 48 hours, read-out: T. brucei EC50
Text: The proliferation is quantified by the addition of Cell Titer Glo (Promega®) a luminescent cell viability assay that measures the number of viable cells in culture based on the quantification of cellular ATP amount, which is an indicator of metabolically active cells. The following assay illustrates the invention without in any way limiting the scope of the invention. This parasite proliferation assay measures the increase in parasite growth using an assay that measures ATP activity, Cell Titer Glo®.
Trypanosoma brucei Lister 427 strain is grown in HMI-9 Trypanosome media for T. brucei bloodstream form. 30 μl of HMI-9 media is dispensed into 384 well assay plates. 200 nL of compounds of the invention (in DMSO), including anti-trypanosome controls (Pentamidine and suramin), are then transferred into the assay plates, as well as DMSO alone to serve as a negative control for inhibition. Then 25 μl of a suspension of T. brucei culture in HMI-9 media is dispensed into the assay plates. The final concentration of parasites in culture corresponds to 1.7% of 0.5 uM ATP activity with Cell Titer Glo® in HMI-9 media. The plates are placed in a 37° C. incubator for 48 hours in an atmospheric environment containing 5% CO2. 40 μl of Cell Titer Glo® is dispensed into the plates. The plates are then read for luminescence. The percentage inhibition of 50%, EC50, is calculated for each compound.

[5] = test system: L. donovani HU3 strain in mouse peritoneal macrophages; experiment: Proliferation of L. donovani in mouse peritoneal macrophages (SybrGreen, high-content imaging); assay type: cell-based; settings: Leishmania donovani, Peritoneal macrophage, 120 h; infected mouse peritoneal macrophages, 5 days; read-out: L. donavani Macrophage EC50
How it was run: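 Peritoneal macrophages from uninfected BALB/c mice were infected for 24 h with spleen-derived amastigotes (9-11 week infected mice), then exposed to compound for 5 days at 37° C. Fixed cells stained with SybrGreen and parasite nuclei counted by high-content imaging; EC50 calculated from inhibition.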

**Q.** With `Nc1nc(N)nc(Nc2ccc([As]3SCC(CO)S3)cc2)n1` (stereo not drawn) [Melarsoprol] as the compound, how does the “reactive encephalopathy cases that result in death” value ([1]; of the encephalopathy cases) read?
**A.** 10-70%

**Q.** And the “patients who developed reactive encephalopathy” value ([1]; patients injected with the drug)?
**A.** 3-10%

**Q.** For `O=C(C[C@H]1CCNC1)Nc1cnc2nc(-c3cc(NC(=O)c4ccco4)ccc3Cl)[nH]c2c1` [Example 34, N-[4-chloro-3-(6-{2-[(3R)-pyrrolidin-3-yl]acetamido}-1H-imidazo[4,5-b]pyridin-2-yl)phenyl]furan-2-carboxamide], which EC50 [2] is on record?
**A.** > 20000 nM

**Q.** And the EC50 [3]?
**A.** > 25000 nM

**Q.** What about the EC50 [4] of the same compound?
**A.** 15200 nM

**Q.** What about the EC50 [5] of the same compound?
**A.** > 50000 nM

**Q.** For `CC(C)OC(=O)Nc1cnc2nc(-c3cc(NC(=O)c4ccc(F)o4)ccc3Cl)[nH]c2c1` [Example 47, propan-2-yl N-{2-[2-chloro-5-(5-fluorofuran-2-amido)phenyl]-1H-imidazo[4,5-b]pyridin-6-yl}carbamate], which EC50 [2] is on record?
**A.** 400 nM

**Q.** And the EC50 [3]?
**A.** 900 nM

**Q.** What about the EC50 [4] of the same compound?
**A.** 200 nM

**Q.** What about the EC50 [5] of the same compound?
**A.** 1520 nM

**Q.** Which EC50 [2] does the source give for `O=C(Nc1ccc(Cl)c(-c2nc3ncc(NC(=O)C4(C(F)(F)F)CCC4)cc3[nH]2)c1)c1ccc(F)o1` [Example 71, N-[4-chloro-3-(6-{[1-(trifluoromethyl)cyclobutane]amido}-1H-imidazo[4,5-b]pyridin-2-yl)phenyl]-5-fluorofuran-2-carboxamide] here?
**A.** 153 nM

**Q.** What about the EC50 [3] of the same compound?
**A.** 1400 nM

**Q.** What about the EC50 [4] of the same compound?
**A.** 30 nM

**Q.** And the EC50 [5]?
**A.** 263 nM

**Q.** Which EC50 [2] does the source give for `Nc1cnc2nc(-c3cc(NC(=O)c4ccco4)ccc3Cl)[nH]c2c1` [Example 20, N-(3-{6-amino-1H-imidazo[4,5-b]pyridin-2-yl}-4-chlorophenyl)furan-2-carboxamide] here?
**A.** 4700 nM

**Q.** And the EC50 [3]?
**A.** 13600 nM

**Q.** What about the EC50 [4] of the same compound?
**A.** 1380 nM

**Q.** What about the EC50 [5] of the same compound?
**A.** 18900 nM
